Experimental data taken from PubChem BioAssay AID2060338 (Molecular Pharmacology Branch, DTP, NCI, 2025).
pIC50: −log10 of the molar value. Several values for one entry are separate records, joined by “and”; a condition that tells them apart may be missing. Equal entries are not always repeated.

System: 556581-035-R-J1-PDC spheroids with HUVEC/MSC, viability
Assay: Anticancer human tumor 556581-035-R-J1-PDC patient-derived ovarian carcinoma cell line growth inhibition [IpAb]
Conditions: for viability, T/C: stronger effect = lower value
In short: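 Multi-cell spheroids of 60% tumour cells, 25% HUVEC and 15% MSC in ultra-low-attachment U-bottom wells, treated with agents combined with ipatasertib or abemaciclib. Half-log ranges top out near clinical Cmax, or 10 microM when Cmax is unknown.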

[1] = curve of first compound, second compound 0.01 µM
[2] = curve of first compound, second compound 0.0316 µM
[3] = curve of first compound, second compound 0.1 µM
[4] = curve of first compound, second compound 0.316 µM
[5] = curve of first compound, second compound 1 µM
[6] = second compound 0.1 µM, first compound 0.00316 µM
[7] = second compound 0.1 µM, first compound 0.01 µM
[8] = second compound 0.1 µM, first compound 0.0316 µM
[9] = second compound 0.1 µM, first compound 0.1 µM
[10] = second compound 0.1 µM, first compound 0.316 µM
[11] = second compound 0.1 µM, first compound 1 µM
[12] = second compound 0.316 µM, first compound 0.00316 µM
[13] = second compound 0.316 µM, first compound 0.01 µM
[14] = second compound 0.316 µM, first compound 0.0316 µM
[15] = second compound 0.316 µM, first compound 0.1 µM
[16] = second compound 0.316 µM, first compound 0.316 µM
[17] = second compound 0.316 µM, first compound 1 µM
[18] = second compound 1 µM, first compound 0.00316 µM
[19] = second compound 1 µM, first compound 0.01 µM
[20] = second compound 1 µM, first compound 0.0316 µM
[21] = second compound 1 µM, first compound 0.1 µM
[22] = second compound 1 µM, first compound 0.316 µM
[23] = second compound 1 µM, first compound 1 µM
[24] = curve of first compound, second compound 3.16 µM
[25] = curve of first compound, second compound 10 µM
[26] = second compound 3.16 µM, first compound 0.0316 µM
[27] = second compound 3.16 µM, first compound 0.1 µM
[28] = second compound 10 µM, first compound 0.0316 µM
[29] = second compound 10 µM, first compound 0.1 µM
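Also: spheroids exposed to compounds for 7 days before readout.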

`COc1c(OCCCN2CCOCC2)ccc2c3n(c(=NC(=O)c4cnc(N)nc4)nc12)CCN3` + CCN1CCN(Cc2ccc(Nc3ncc(F)c(-c4cc(F)c5nc(C)n(C(C)C)c5c4)n3)nc2)CC1 showed a pIC50 [1] of 7.83, a pIC50 [2] of 7.73 and a pIC50 [3] of 7.66. The pIC50 [4] was 7.67, the pIC50 [5] was 7.91 and the viability, T/C (second compound 0.01 µM, first compound 0.00316 µM) was 76.3%. It also gave a viability, T/C (second compound 0.01 µM, first compound 0.01 µM) of 49.2%, a viability, T/C (second compound 0.01 µM, first compound 0.0316 µM) of 39.6% and a viability, T/C (second compound 0.01 µM, first compound 0.1 µM) of 29.9%. The viability, T/C (second compound 0.01 µM, first compound 0.316 µM) was 12.4%, the viability, T/C (second compound 0.01 µM, first compound 1 µM) was 3.84% and the viability, T/C (second compound 0.0316 µM, first compound 0.00316 µM) was 77.2%. The viability, T/C (second compound 0.0316 µM, first compound 0.01 µM) was 53.8%, the viability, T/C (second compound 0.0316 µM, first compound 0.0316 µM) was 43.9% and the viability, T/C (second compound 0.0316 µM, first compound 0.1 µM) was 32.4%. It also gave a viability, T/C (second compound 0.0316 µM, first compound 0.316 µM) of 11.2%, a viability, T/C (second compound 0.0316 µM, first compound 1 µM) of 2.33% and a viability, T/C [6] of 84%. The viability, T/C [7] was 60.9%, the viability, T/C [8] was 40.3% and the viability, T/C [9] was 34.4%. The viability, T/C [10] was 11.3%, the viability, T/C [11] was 2% and the viability, T/C [12] was 84.9%. It also gave a viability, T/C [13] of 63.2%, a viability, T/C [14] of 41.2% and a viability, T/C [15] of 29.9%. The viability, T/C [16] was 7.71%, the viability, T/C [17] was 3.06% and the viability, T/C [18] was 59.9%. For the same compound, the viability, T/C [19] was 51.7%, the viability, T/C [20] was 40.4% and the viability, T/C [21] was 29.8%. For the same compound, the viability, T/C [22] was 12% and the viability, T/C [23] was 2.02%.
`CCCS(=O)(=O)Nc1ccc(F)c(C(=O)c2c[nH]c3ncc(-c4ccc(Cl)cc4)cc23)c1F` + CC(C)NCC(C(=O)N1CCN(c2ncnc3c2C(C)CC3O)CC1)c1ccc(Cl)cc1 was tested, and the pIC50 [3] was < 5.00, the pIC50 [4] was < 5.00 and the pIC50 [5] was < 5.00. It also gave a pIC50 [24] of 5.34, a pIC50 [25] of 7.50 and a viability, T/C [8] of 80.4%. The viability, T/C [9] was 83%, the viability, T/C [10] was 97.2% and the viability, T/C [11] was 88.6%. The viability, T/C (second compound 0.1 µM, first compound 3.16 µM) was 90%, the viability, T/C (second compound 0.1 µM, first compound 10 µM) was 54.3% and the viability, T/C [14] was 90%. For the same compound, the viability, T/C [15] was 73.9%, the viability, T/C [16] was 71.8% and the viability, T/C [17] was 80.8%. It also gave a viability, T/C (second compound 0.316 µM, first compound 3.16 µM) of 78.2%, a viability, T/C (second compound 0.316 µM, first compound 10 µM) of 59.9% and a viability, T/C [20] of 67.1%. The viability, T/C [21] was 69%, the viability, T/C [22] was 61.5% and the viability, T/C [23] was 71.3%. For the same compound, the viability, T/C (second compound 1 µM, first compound 3.16 µM) was 69.1%, the viability, T/C (second compound 1 µM, first compound 10 µM) was 40.4% and the viability, T/C [26] was 49.2%. The viability, T/C [27] was 61.8%, the viability, T/C (second compound 3.16 µM, first compound 0.316 µM) was 55.5% and the viability, T/C (second compound 3.16 µM, first compound 1 µM) was 55.8%. For the same compound, the viability, T/C (second compound 3.16 µM, first compound 3.16 µM) was 54.5%, the viability, T/C (second compound 3.16 µM, first compound 10 µM) was 40.8% and the viability, T/C [28] was 45.1%. The viability, T/C [29] was 46.7%, the viability, T/C (second compound 10 µM, first compound 0.316 µM) was 47.2% and the viability, T/C (second compound 10 µM, first compound 1 µM) was 53.2%. The viability, T/C (second compound 10 µM, first compound 3.16 µM) was 50.8% and the viability, T/C (second compound 10 µM, first compound 10 µM) was 16.6%.
For `Cn1ncnc1[C@H]1c2n[nH]c(=O)c3cc(F)cc(c23)N[C@@H]1c1ccc(F)cc1` + CC(C)NCC(C(=O)N1CCN(c2ncnc3c2C(C)CC3O)CC1)c1ccc(Cl)cc1, the pIC50 [3] was < 7.00, the pIC50 [4] was 7.03 and the pIC50 [5] was < 7.00. For the same compound, the pIC50 [24] was < 7.00, the pIC50 [25] was > 9.50 and the viability, T/C (second compound 0.1 µM, first compound 0.000316 µM) was 106%. It also gave a viability, T/C (second compound 0.1 µM, first compound 0.001 µM) of 93%, a viability, T/C [6] of 88% and a viability, T/C [7] of 86.1%. It also gave a viability, T/C [8] of 82.6%, a viability, T/C [9] of 64.2% and a viability, T/C (second compound 0.316 µM, first compound 0.000316 µM) of 92.7%. For the same compound, the viability, T/C (second compound 0.316 µM, first compound 0.001 µM) was 87.5%, the viability, T/C [12] was 78% and the viability, T/C [13] was 59.7%. The viability, T/C [14] was 67.2%, the viability, T/C [15] was 46.8% and the viability, T/C (second compound 1 µM, first compound 0.000316 µM) was 70.6%. The viability, T/C (second compound 1 µM, first compound 0.001 µM) was 60%, the viability, T/C [18] was 65.9% and the viability, T/C [19] was 52.2%. It also gave a viability, T/C [20] of 65.4%, a viability, T/C [21] of 55.4% and a viability, T/C (second compound 3.16 µM, first compound 0.000316 µM) of 51.2%. For the same compound, the viability, T/C (second compound 3.16 µM, first compound 0.001 µM) was 54.1%, the viability, T/C (second compound 3.16 µM, first compound 0.00316 µM) was 51.5% and the viability, T/C (second compound 3.16 µM, first compound 0.01 µM) was 54.8%. The viability, T/C [26] was 44.2%, the viability, T/C [27] was 54.8% and the viability, T/C (second compound 10 µM, first compound 0.000316 µM) was 48.6%. For the same compound, the viability, T/C (second compound 10 µM, first compound 0.001 µM) was 46.3%, the viability, T/C (second compound 10 µM, first compound 0.00316 µM) was 42.9% and the viability, T/C (second compound 10 µM, first compound 0.01 µM) was 35.6%. For the same compound, the viability, T/C [28] was 44.2% and the viability, T/C [29] was 36.2%.
With `C=CCn1c(=O)c2cnc(Nc3ccc(N4CCN(C)CC4)cc3)nc2n1-c1cccc(C(C)(C)O)n1` the viability, T/C (compound 0.0316 µM) was 102% and 109%, the viability, T/C (compound 0.1 µM) was 72.1% and 83.2% and the viability, T/C (compound 0.316 µM) was 28.2% and 29.8%. The viability, T/C (compound 1 µM) was 39.7% and 41.9%, the viability, T/C (compound 3.16 µM) was 50.2% and 42% and the viability, T/C (compound 10 µM) was 36.3% and 35.7%. The pIC50 (curve of compound) was 6.67 and 6.64.
For `Cc1nc(NC(=O)N2CCCC2C(N)=O)sc1-c1ccnc(C(C)(C)C(F)(F)F)c1` (centres undefined), the viability, T/C (compound 0.0316 µM) was 84.4% and 80.2%, the viability, T/C (compound 0.1 µM) was 73.3% and 72.6% and the viability, T/C (compound 0.316 µM) was 58.8% and 56.2%. For the same compound, the viability, T/C (compound 1 µM) was 40.9% and 42%, the viability, T/C (compound 3.16 µM) was 28.5% and 31.8% and the viability, T/C (compound 10 µM) was 9.2% and 11.3%. For the same compound, the pIC50 (curve of compound) was 6.23 and 6.22.
With `CC(=O)c1c(C)c2cnc(Nc3ccc(N4CCNCC4)cn3)nc2n(C2CCCC2)c1=O` + CCN1CCN(Cc2ccc(Nc3ncc(F)c(-c4cc(F)c5nc(C)n(C(C)C)c5c4)n3)nc2)CC1 the pIC50 [1] was < 6.52, the pIC50 [2] was < 6.52 and the pIC50 [3] was < 6.52. The pIC50 [4] was < 6.52, the pIC50 [5] was < 6.52 and the viability, T/C (second compound 0.01 µM, first compound 0.000949 µM) was 99.9%. It also gave a viability, T/C (second compound 0.01 µM, first compound 0.003 µM) of 106%, a viability, T/C (second compound 0.01 µM, first compound 0.00949 µM) of 117% and a viability, T/C (second compound 0.01 µM, first compound 0.03 µM) of 100%. It also gave a viability, T/C (second compound 0.01 µM, first compound 0.0949 µM) of 82.7%, a viability, T/C (second compound 0.01 µM, first compound 0.3 µM) of 88.3% and a viability, T/C (second compound 0.0316 µM, first compound 0.000949 µM) of 76.2%. For the same compound, the viability, T/C (second compound 0.0316 µM, first compound 0.003 µM) was 93.2%, the viability, T/C (second compound 0.0316 µM, first compound 0.00949 µM) was 101% and the viability, T/C (second compound 0.0316 µM, first compound 0.03 µM) was 91.3%. The viability, T/C (second compound 0.0316 µM, first compound 0.0949 µM) was 92.2%, the viability, T/C (second compound 0.0316 µM, first compound 0.3 µM) was 76.1% and the viability, T/C (second compound 0.1 µM, first compound 0.000949 µM) was 81.7%. It also gave a viability, T/C (second compound 0.1 µM, first compound 0.003 µM) of 84.4%, a viability, T/C (second compound 0.1 µM, first compound 0.00949 µM) of 82% and a viability, T/C (second compound 0.1 µM, first compound 0.03 µM) of 87.3%. It also gave a viability, T/C (second compound 0.1 µM, first compound 0.0949 µM) of 80.2%, a viability, T/C (second compound 0.1 µM, first compound 0.3 µM) of 89.1% and a viability, T/C (second compound 0.316 µM, first compound 0.000949 µM) of 89.5%. It also gave a viability, T/C (second compound 0.316 µM, first compound 0.003 µM) of 84.4%, a viability, T/C (second compound 0.316 µM, first compound 0.00949 µM) of 94.6% and a viability, T/C (second compound 0.316 µM, first compound 0.03 µM) of 68.8%. It also gave a viability, T/C (second compound 0.316 µM, first compound 0.0949 µM) of 81.3%, a viability, T/C (second compound 0.316 µM, first compound 0.3 µM) of 64% and a viability, T/C (second compound 1 µM, first compound 0.000949 µM) of 49.9%. It also gave a viability, T/C (second compound 1 µM, first compound 0.003 µM) of 57.8%, a viability, T/C (second compound 1 µM, first compound 0.00949 µM) of 46.6% and a viability, T/C (second compound 1 µM, first compound 0.03 µM) of 55%. The viability, T/C (second compound 1 µM, first compound 0.0949 µM) was 49.8% and the viability, T/C (second compound 1 µM, first compound 0.3 µM) was 54%.
